Results published in US9422350B2, “Target of EGR1 (TOE1) polypeptides for inhibition of HIV” (priority 2010, dated 2016).
Entries after “also recorded” stand apart in the source; their conditions may differ.

What was measured:
[1] = tested on: Tat driven HIV LTR expression; experiment: Tat-driven HIV LTR (TAR) luciferase reporter assay in transfected HeLa cells; type: cell-based; conditions: for inhibitory activity of Tat activation of HIV LTR compared with wild-type TOE1: HeLa cells, luciferase, FIG. 7
Experimental: FIG. 3: TOE1 inhibits Tat driven HIV LTR expression. HeLa cells were seeded into 24 wells plates at 30,000 cells/well and then transfected the following day with the indicated constructs at 200 ng total DNA+0.5 μl of FuGENE™ (Roche)/well. 24 hours after transfection the cells were lysed and the luciferase expression was determined by reading Relative Bioluminescent Units (RLU). This graph is representative of multiple experiments performed in triplicates.
FIG. 7: TOE1 processing by caspase-1 enhances its inhibition of HIV LTR transactivation by Tat. (A) HeLa cells were transfected with the indicated constructs, and then luciferase assay was performed as described above. […] All transfection and measurements were performed in triplicate.
FIG. 9: Defining the minimal TOE1 region able to inhibit Tat-induced HIV LTR activation. […] Results are expressed as percentage activation of the HIV LTR referenced to Tat. All transfections and measurements were performed in triplicate, and results are representative of multiple independent experiments.
To test for a potential interaction between TOE1 and Tat, we assessed the effect of TOE1 expression on Tat driven transactivation of the TAR element. We employed a luciferase expression system controlled by the HIV LTR including the TAR sequence.

[2] = tested on: Tat-driven HIV LTR activity; experiment: Co-culture of transfected 293T cells with HeLa cells carrying HIV LTR reporter and Tat; type: cell-based; conditions: 293T transfected with construct, co-cultured 24 hours with HeLa (HIV LTR + Tat), FIG. 11
Experimental: FIG. 11. TOE1 can be secreted and inhibits HIV LTR in neighboring cells. HeLa cells were transfected with either HIV LTR alone, or together with Tat as indicated. Separately, 293T cells were transfected with either control empty vector (C), full length TOE1 (TOE1), or a deletion mutant comprising amino acids 283-363 (SEQ ID NO:13) containing the basic region located at 335-348 (283-363). 24 hours following transfection, the transfected 293T cells were placed in co-culture with the transfected HeLa cells to provide the samples. 24 hours after co-culture, samples were assayed for Tat-driven HIV LTR activity.
To determine if TOE1 could be secreted and subsequently taken up by other neighboring cells, we performed co-culture experiments of cells transfected with the HIV LTR reporter and Tat protein in one cell type and either full length TOE1 or the potential protein transduction domain of TOE1 comprising amino acids 283-363 (SEQ ID NO:13) in another cell type. […] Therefore, a minimal domain of TOE1, comprising the basic stretch of amino acids at position 335-347 (SEQ ID NO:15), was able to function as a protein transduction domain as well as an effective inhibitor of Tat transcriptional activation.

caspase-1 = biological target: T1, caspase-1 (Homo sapiens, UniProt P29466); experiment: In vitro digestion of immunoprecipitated TOE1 with recombinant caspase-1, Western blot; type: biochemical; conditions: caspase-1 incubation 4 hours at 37° C., FIG. 4
T1 construct: purchased Calbiochem
T1 sequence (P29466 120-297 limits assumed): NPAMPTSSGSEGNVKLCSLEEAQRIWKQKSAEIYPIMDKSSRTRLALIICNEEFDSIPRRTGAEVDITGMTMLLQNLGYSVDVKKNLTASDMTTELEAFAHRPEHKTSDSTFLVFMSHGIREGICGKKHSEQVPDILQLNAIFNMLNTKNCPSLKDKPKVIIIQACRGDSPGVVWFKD
Experimental: FIG. 4: TOE1 is a substrate for caspase-1. (A) Endogenously expressed TOE1 was immunoprecipitated from a lysate of Jurkat cells using the rabbit polyclonal α-TOE1 antibody or pre-immune serum (control=C) and ProteinA/Sepharose™ beads. Immunoprecipitates complexed beads were then incubated with 5 units of recombinant caspase-1 (from Calbiochem) or control buffer, as indicated, for 4 hours at 37° C., and then separated on a 12% Acrylamide/SDS gel and transferred on a PVDF membrane. 50 kDa, 40 kDa and 30 kDa fragments are visible after probing the blot with the monoclonal α-TOE1 antibody. (B) Cell lysates from cells transfected with a TOE1 expression construct were subjected to immunoprecipitation with the rabbit α-TOE1 antibody and ProteinA/Sepharose™ beads.
Since, as described earlier, CAF activity is reported to be dependent upon proteolytic activity, we decided to explore the possibility that TOE1 is a protease substrate. […] The software predicts a single cleavage for the tetrapeptide FTAD at position 214-217 of TOE1. We considered this potential cleavage to warrant further study for several reasons. […] Under our experimental conditions we observed processing by casapse-1 generating fragments of 50, 40, and 30 kDa as detected with a monoclonal anti-TOE1 antibody whose target epitope we have mapped to residues 218-282 (FIG. 4A). […]

335-363 (KRRRRRRREKRKRALLNLPGTQTSGEAKD; K335/D363 Deletion mutant of TOE1)
inhibition of Tat activation of the HIV LTR by TOE1 deletion mutants ([1]; transfected deletion mutants, FIG. 9): significantly inhibiting

D195/282A
inhibitory activity of Tat activation of HIV LTR compared with wild-type TOE1 [1]: less effective than wild type TOE1; also recorded: significantly less effective

TOE1: human TOE1 (target of EGR1) protein, full length, 510 amino acids
effect on the LTR in the absence of Tat ([1]; HIV LTR luciferase, no Tat): did not have any effect | reduction of Tat transactivation potential ([1]; TOE1 coexpressed with Tat, HIV LTR incl. TAR luciferase, different experiments (FIG. 3)): 50-80% | inhibition of Tat activation of the HIV LTR in neighboring cells [2]: effectively inhibiting

YVAD-CHO
inhibition of TOE1 processing by caspase-1 (caspase-1): completely prevents the processing; also recorded: processing was inhibited

delN282
inhibitory activity of Tat activation of HIV LTR compared with wild-type TOE1 [1]: more efficient inhibitor; also recorded: greater inhibition than wild-type TOE1
